Results reported in patent publication US10196391B2 (Hoffmann-La Roche Inc., priority 2014, dated 2019).
pIC50: −log10 of the molar value.

The compounds below were run on HBsAg (assay: HBsAg assay (CLIA) in HepG2.2.15 cells). Settings: Hepatitis B virus, HepG2.2.15, read-out: IC50 (HBsAg assay).
Format: cell-based, HBV
Protocol: HepG2.2.15 cells (Acs et al. Proc Natl Acad Sci USA, 84, (1987), 4641-4), a constitutively HBV-expressing cell line were cultured in DMEM+Glutamax-I medium (Invitrogen, Carlsbad, Calif., USA), supplemented with 10% fetal bovine serum (Invitrogen) and G418 (Invitrogen) at a final concentration of 200 mg/L and maintained in 5% CO2 at 37° C.
HepG2.2.15 cells were seeded in duplicate into white, 96-well plates at 1.5×10^4 cells/well. The cells were treated with a three-fold serial dilution series of the compounds in DMSO. The final DMSO concentration in all wells was 1% and DMSO was used as no drug control.
The HBsAg chemiluminescence immunoassay (CLIA) kit (Autobio Diagnostics Co., Zhengzhou, China, Catalog number: CL0310-2) was used to measure the levels of secreted HBV antigens semi-quantitatively. For the detection 50 μL/well culture supernatant was used and HBsAg was quantified using HBsAg chemiluminescence immunoassay (CLIA) kit (Autobio Diagnostics Co., Zhengzhou, China, Catalog number: CL0310-2), 50 μL of the supernatant was transferred to the CLIA assay plate and 50 μL of enzyme conjugate reagent was added into each well. The plates were sealed and gently agitated for 1 hour at room temperature. The supernatant-enzyme-mixture was discarded and wells were washed 6 times with 300 μL of PBS. The residual liquid was removed by plating the CLIA plate […] on absorbent tissue paper. 25 μL of substrates A and B were added to each well. Luminance was measured using a luminometer (Mithras LB 940 Multimode Microplate Reader) after 10 minutes incubation. Dose-response curves were generated and the IC50 value was extrapolated by using the E-WorkBook Suite (ID Business Solutions Ltd., Guildford, UK). The IC50 was defined as the compound concentration (or conditioned media log dilution) at which HBsAg secretion was reduced by 50% compared to the no drug control.
The compounds according to formula I were tested for their capacity to inhibit HBsAg as described herein.

Point of comparison: `COc1cc(N2CCc3nc(-c4ccncn4)ncc3C2)cc(F)c1F` [Example 29, 6-(3,4-difluoro-5-methoxy-phenyl)-2-pyrimidin-4-yl-7,8-dihydro-5H-pyrido[4,3-d]pyrimidine], pIC50 5.38. Against it:
- COc1ccnc(-c2ncc3c(n2)CCN(c2cc(F)c(F)c(OC)c2)C3)c1 [Example 24, 6-(3,4-difluoro-5-methoxy-phenyl)-2-(4-methoxy-2-pyridyl)-7,8-dihydro-5H-pyrido[4,3-d]pyrimidine] — 0.35 log units higher, 5.73
- CCOC(=O)c1ccc(N2CCc3nc(-c4ccccn4)ncc3C2)cc1 [Example 31, ethyl 4-[2-(2-pyridyl)-7,8-dihydro-5H-pyrido[4,3-d]pyrimidin-6-yl]benzoate] — 0.61 log units lower, 4.77
- Clc1ccc(N2CCc3nc(-c4ccccn4)ncc3C2)cc1Cl [Example 49, 6-(3,4-dichlorophenyl)-2-(2-pyridyl)-7,8-dihydro-5H-pyrido[4,3-d]pyrimidine] — 0.59 log units higher, 5.97
- COCCCOc1ccc(N2CCc3nc(-c4ccccn4)ncc3C2)cc1F [Example 56, 6-[3-fluoro-4-(3-methoxypropoxy)phenyl]-2-(2-pyridyl)-7,8-dihydro-5H-pyrido[4,3-d]pyrimidine] — 0.36 log units higher, 5.74
- Fc1cc(OC(F)(F)F)cc(N2CCc3nc(-c4ncccn4)ncc3C2)c1 [Example 118, 6-[3-fluoro-5-(trifluoromethoxy)phenyl]-2-pyrimidin-2-yl-7,8-dihydro-5H-pyrido[4,3-d]pyrimidine] — within 0.2 log units, 5.30
- Fc1cc(F)cc(N2CCc3nc(-c4ccccn4)ncc3C2)c1 [Example 13, 6-(3,5-difluorophenyl)-2-(2-pyridyl)-7,8-dihydro-5H-pyrido[4,3-d]pyrimidine] — 0.60 log units higher, 5.98
- COc1nc(N2CCc3nc(-c4ccccn4)ncc3C2)ncc1Cl [Example 68, 6-(5-chloro-4-methoxy-pyrimidin-2-yl)-2-(2-pyridyl)-7,8-dihydro-5H-pyrido[4,3-d]pyrimidine] — 0.45 log units higher, 5.83
- CS(=O)(=O)c1ccc(N2CCc3nc(-c4ccccn4)nc(OCc4ccccc4)c3C2)cc1 [Example 83] — 0.68 log units lower, 4.70
- COc1cc(N2CCc3nc(-c4ncccn4)ncc3C2)cc(Cl)n1 [Example 116, 6-(2-chloro-6-methoxy-4-pyridyl)-2-pyrimidin-2-yl-7,8-dihydro-5H-pyrido[4,3-d]pyrimidine] — 0.90 log units higher, 6.28
- CCOc1cc(N2CCc3nc(-c4ccccn4)ncc3C2)ccc1C(=O)O [Example 66, 2-ethoxy-4-[2-(2-pyridyl)-7,8-dihydro-5H-pyrido[4,3-d]pyrimidin-6-yl]benzoic acid] — 0.50 log units lower, 4.88
- COc1cc(F)cc(N2CCc3nc(-c4ncccn4)ncc3C2)n1 [Example 111, 6-(4-fluoro-6-methoxy-2-pyridyl)-2-pyrimidin-2-yl-7,8-dihydro-5H-pyrido[4,3-d]pyrimidine] — 1.06 log units higher, 6.44
- CCc1nc(-c2ccccn2)nc2c1CN(c1ccc(S(C)(=O)=O)cc1)CC2 [Example 86] — 0.72 log units lower, 4.66
- Clc1cc(Cl)nc(N2CCc3nc(-c4ncccn4)ncc3C2)c1 [Example 113, 6-(4,6-dichloro-2-pyridyl)-2-pyrimidin-2-yl-7,8-dihydro-5H-pyrido[4,3-d]pyrimidine] — 1.41 log units higher, 6.79
- OCCCOc1cc(N2CCc3nc(-c4ccccn4)ncc3C2)cc(F)c1F [Example 93, 3-[2,3-difluoro-5-[2-(2-pyridyl)-7,8-dihydro-5H-pyrido[4,3-d]pyrimidin-6-yl]phenoxy]propan-1-ol] — 1.12 log units higher, 6.50
- COc1cc(N2CCc3nc(-c4ncccn4)ncc3C2)cc(Cl)c1F [Example 79, 6-(3-chloro-4-fluoro-5-methoxy-phenyl)-2-pyrimidin-2-yl-7,8-dihydro-5H-pyrido[4,3-d]pyrimidine] — 1.16 log units higher, 6.54
- COc1ccc(N2CCc3nc(-c4ccccn4)ncc3C2)cc1 [Example 50, 6-(4-methoxyphenyl)-2-(2-pyridyl)-7,8-dihydro-5H-pyrido[4,3-d]pyrimidine] — 0.72 log units lower, 4.66
- Cc1ccc(-c2ncc3c(n2)CCN(c2ccc(S(C)(=O)=O)cc2)C3)nc1 [Example 3, 2-(5-methyl-2-pyridyl)-6-(4-methylsulfonylphenyl)-7,8-dihydro-5H-pyrido[4,3-d]pyrimidine] — 0.34 log units lower, 5.04
